Where “and” joins values, the source holds several entries; their conditions need not be identical. Identical values can stand only once. Toxic doses and inconclusive results are not listed.
Tested on: CD2F1 mice, L1210 leukemia ip, survival T/C
Assay: NCI In Vivo Anticancer Drug Screen. Data for tumor model L1210 Leukemia (intraperitoneal) in CD2F1 (CDF1) mice
Conditions: higher = longer survival
How it was run: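 In this screen, transplantable tumors were grown in mice given either the compound or its vehicle. Results were expressed as the treated measurement relative to the control measurement.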

[1] = endpoint: mean survival time, dose: 100.0 mg/kg/injection, schedule: Q04DX003 (ip), vehicle: saline with Tween-80
[2] = endpoint: mean survival time, dose: 200.0 mg/kg/injection, schedule: Q04DX003 (ip), vehicle: saline with Tween-80
[3] = endpoint: mean survival time, dose: 400.0 mg/kg/injection, schedule: Q04DX003 (ip), vehicle: saline with Tween-80
[4] = endpoint: mean survival time, dose: 50.0 mg/kg/injection, schedule: Q01DX009 (ip), vehicle: saline
[5] = endpoint: mean survival time, dose: 100.0 mg/kg/injection, schedule: Q01DX009 (ip), vehicle: saline
[6] = endpoint: mean survival time, dose: 200.0 mg/kg/injection, schedule: Q01DX009 (ip), vehicle: saline
[7] = endpoint: mean survival time, dose: 75.0 mg/kg/injection, schedule: Q01DX001 (ip), vehicle: saline
[8] = endpoint: mean survival time, dose: 100.0 mg/kg/injection, schedule: Q01DX001 (ip), vehicle: saline with Tween-80
[9] = endpoint: mean survival time, dose: 200.0 mg/kg/injection, schedule: Q01DX001 (ip), vehicle: saline with Tween-80
[10] = endpoint: mean survival time, dose: 400.0 mg/kg/injection, schedule: Q01DX001 (ip), vehicle: saline with Tween-80
[11] = endpoint: mean survival time, dose: 100.0 mg/kg/injection, schedule: Q04DX002 (ip), vehicle: saline with Tween-80
[12] = endpoint: mean survival time, dose: 200.0 mg/kg/injection, schedule: Q04DX002 (ip), vehicle: saline with Tween-80
[13] = endpoint: mean survival time, dose: 400.0 mg/kg/injection, schedule: Q04DX002 (ip), vehicle: saline with Tween-80
[14] = endpoint: mean survival time, dose: 100.0 mg/kg/injection, schedule: Q01DX001 (ip), vehicle: saline
[15] = endpoint: mean survival time, dose: 100.0 mg/kg/injection, schedule: Q01DX009 (ip), vehicle: saline with Tween-80
[16] = endpoint: mean survival time, dose: 200.0 mg/kg/injection, schedule: Q01DX009 (ip), vehicle: saline with Tween-80

Structure (SMILES): N#CCCC1C(=O)CCCC1=O
- T/C [1]: 105 % of control
- T/C [2]: 89 % of control
- T/C [3]: 97 % of control

Structure (SMILES): NC(=O)SCC(N)C(=O)O (centres undefined)
- T/C [4]: 101 % of control
- T/C [5]: 101 % of control
- T/C [6]: 109 % of control
- T/C (endpoint: mean survival time, dose: 300.0 mg/kg/injection, schedule: Q01DX009 (ip), vehicle: saline): 107 % of control

Structure (SMILES): CC1CCC(NC(=O)NCCF)CC1 (centres undefined)
- T/C (endpoint: mean survival time, dose: 75.0 mg/kg/injection, schedule: Q01DX001 (ip), vehicle: other): 100 % of control
- T/C (endpoint: mean survival time, dose: 150.0 mg/kg/injection, schedule: Q01DX001 (ip), vehicle: other): 115 % of control

Structure (SMILES): c1ccc(N=C(C(=Nc2ccccc2)c2ccccn2)c2cccnc2)cc1
- T/C (endpoint: mean survival time, dose: 100.0 mg/kg/injection, schedule: Q01DX001 (ip), vehicle: Klucel (hydroxypropylcellulose) (HPC)): 93 % of control
- T/C (endpoint: mean survival time, dose: 200.0 mg/kg/injection, schedule: Q01DX001 (ip), vehicle: Klucel (hydroxypropylcellulose) (HPC)): 103 % of control
- T/C (endpoint: mean survival time, dose: 400.0 mg/kg/injection, schedule: Q01DX001 (ip), vehicle: Klucel (hydroxypropylcellulose) (HPC)): 100 % of control

Structure (SMILES): CN(C)Cc1c(-c2ccccc2)c(CN(C)C)n2ccccc12
- T/C [7]: 97 % of control

Structure (SMILES): NC(N)=NC(=S)Nc1ccccc1
- T/C [8]: 118 % of control
- T/C [9]: 103 % of control
- T/C [10]: 118 % of control

Structure (SMILES): Cc1ccc(C2(SCC(N)C(=O)O)c3ccccc3-c3ccccc32)cc1 (centres undefined)
- T/C (endpoint: mean survival time, dose: 25.0 mg/kg/injection, schedule: Q01DX009 (ip), vehicle: saline): 95 % of control
- T/C [4]: 95 % of control
- T/C [5]: 97 % of control
- T/C [6]: 107 % of control

Structure (SMILES): COc1cccc2c1C(=O)C1=C(C2=O)c2c(O)cc(CO)cc2C(O)C1O (centres undefined)
- T/C (endpoint: median survival time, dose: 3.12 mg/kg/injection, schedule: Q01DX005 (ip), vehicle: other): 101 % of control
- T/C (endpoint: median survival time, dose: 6.25 mg/kg/injection, schedule: Q01DX005 (ip), vehicle: other): 105 % of control
- T/C (endpoint: median survival time, dose: 12.5 mg/kg/injection, schedule: Q01DX005 (ip), vehicle: other): 103 % of control
- T/C (endpoint: median survival time, dose: 25.0 mg/kg/injection, schedule: Q01DX005 (ip), vehicle: other): 109 % of control
- T/C (endpoint: median survival time, dose: 50.0 mg/kg/injection, schedule: Q01DX005 (ip), vehicle: other): 119 % of control

Structure (SMILES): CC([NH-])C(C)[NH-].CC([NH-])C(C)[NH-].[Cl][Co][Cl] (centres undefined)
- T/C (endpoint: mean survival time, dose: 100.0 mg/kg/injection, schedule: Q04DX002 (ip), vehicle: saline): 103 % of control

Structure (SMILES): O=C(NCCCN1CC1)C(=O)NCCCN1CC1
- T/C (endpoint: mean survival time, dose: 3.13 mg/kg/injection, schedule: Q01DX009 (ip), vehicle: saline): 191 % of control
- T/C (endpoint: mean survival time, dose: 12.5 mg/kg/injection, schedule: Q01DX009 (ip), vehicle: saline): 101 % of control

Structure (SMILES): CCc1ccc(O[Si](C)(C)C)cc1
- T/C [1]: 97 % of control
- T/C [2]: 99 % of control

Structure (SMILES): O=[N+]([O-])c1cccc(C=Nc2ccc3c(c2)C(Br)c2ccccc2-3)c1 (centres undefined)
- T/C [1]: 97 % of control
- T/C [2]: 90 % of control

Structure (SMILES): COc1cc(/C=C/[N+](=O)[O-])cc(Br)c1OC
- T/C (endpoint: median survival time, dose: 6.25 mg/kg/injection, schedule: Q01DX009 (ip), vehicle: saline with Tween-80): 103 % of control
- T/C (endpoint: median survival time, dose: 12.5 mg/kg/injection, schedule: Q01DX009 (ip), vehicle: saline with Tween-80): 96 % of control
- T/C (endpoint: median survival time, dose: 25.0 mg/kg/injection, schedule: Q01DX009 (ip), vehicle: saline with Tween-80): 109 % of control

Structure (SMILES): CC(=O)Nc1ccc(C(=O)c2ccc(C(=O)O)cc2)cc1
- T/C [11]: 92 % of control and 98 % of control
- T/C [1]: 95 % of control and 100 % of control
- T/C [12]: 93 % of control and 96 % of control
- T/C [2]: 104 % of control and 109 % of control
- T/C [13]: 96 % of control and 107 % of control
- T/C [3]: 114 % of control and 104 % of control

Structure (SMILES): O=C1CC23CCCN2CCc2cc4c(cc2C3=C1O)OCO4 (centres undefined)
- T/C (endpoint: mean survival time, dose: 1.56 mg/kg/injection, schedule: Q01DX009 (ip), vehicle: Klucel (hydroxypropylcellulose) (HPC)): 102 % of control
- T/C (endpoint: mean survival time, dose: 3.13 mg/kg/injection, schedule: Q01DX009 (ip), vehicle: Klucel (hydroxypropylcellulose) (HPC)): 101 % of control
- T/C (endpoint: mean survival time, dose: 6.25 mg/kg/injection, schedule: Q01DX009 (ip), vehicle: Klucel (hydroxypropylcellulose) (HPC)): 104 % of control
- T/C (endpoint: mean survival time, dose: 12.5 mg/kg/injection, schedule: Q01DX009 (ip), vehicle: Klucel (hydroxypropylcellulose) (HPC)): 102 % of control
- T/C (endpoint: mean survival time, dose: 25.0 mg/kg/injection, schedule: Q01DX009 (ip), vehicle: Klucel (hydroxypropylcellulose) (HPC)): 95 % of control

Structure (SMILES): O=C1OCC/C1=C1\CCCO1
- T/C [1]: 106 % of control
- T/C [2]: 101 % of control
- T/C [3]: 95 % of control

Structure (SMILES): CCC(C)CC(C)N (centres undefined)
- T/C [14]: 104 % of control

Structure (SMILES): CN(C1=CC(=O)C(N(C)C2CCCCC2)=CC1=O)C1CCCCC1
- T/C (endpoint: mean survival time, dose: 3.75 mg/kg/injection, schedule: Q01DX009 (ip), vehicle: saline): 94 % of control
- T/C (endpoint: mean survival time, dose: 3.75 mg/kg/injection, schedule: Q04DX003 (ip), vehicle: saline): 103 % of control
- T/C (endpoint: mean survival time, dose: 7.5 mg/kg/injection, schedule: Q01DX009 (ip), vehicle: saline): 90 % of control
- T/C (endpoint: mean survival time, dose: 7.5 mg/kg/injection, schedule: Q04DX003 (ip), vehicle: saline): 101 % of control
- T/C (endpoint: mean survival time, dose: 15.0 mg/kg/injection, schedule: Q01DX009 (ip), vehicle: saline): 89 % of control
- T/C (endpoint: mean survival time, dose: 15.0 mg/kg/injection, schedule: Q04DX003 (ip), vehicle: saline): 98 % of control

Structure (SMILES): Cc1csc2ncnc(N)c12
- T/C [8]: 100 % of control
- T/C [9]: 92 % of control
- T/C [10]: 101 % of control

Structure (SMILES): COc1ccc(/C=N/O)cc1
- T/C [7]: 102 % of control
- T/C (endpoint: mean survival time, dose: 150.0 mg/kg/injection, schedule: Q01DX001 (ip), vehicle: saline): 100 % of control
- T/C (endpoint: mean survival time, dose: 300.0 mg/kg/injection, schedule: Q01DX001 (ip), vehicle: saline): 101 % of control

Structure (SMILES): Cc1cccc(Cl)c1NC(=O)Nc1cc(Cl)ccc1Oc1c(Cl)cc(Cl)cc1S(=O)(=O)O
- T/C [15]: 90 % of control
- T/C [16]: 90 % of control

Structure (SMILES): COc1ccc(/C=C/c2ccc([N+](=O)[O-])cc2)cc1
- T/C [1]: 102 % of control
- T/C [2]: 100 % of control
- T/C [3]: 100 % of control

Structure (SMILES): Clc1c(CI)ccc(CI)c1Cl
- T/C (endpoint: mean survival time, dose: 25.0 mg/kg/injection, schedule: Q04DX003 (ip), vehicle: saline with Tween-80): 95 % of control
- T/C (endpoint: mean survival time, dose: 50.0 mg/kg/injection, schedule: Q04DX003 (ip), vehicle: saline with Tween-80): 97 % of control
- T/C [1]: 102 % of control

Structure (SMILES): CCOc1ccccc1NC(=O)C(Br)C(Br)C(=O)O (centres undefined)
- T/C [8]: 110 % of control
- T/C [9]: 112 % of control
- T/C [10]: 108 % of control

Structure (SMILES): COC(=O)CCC#N
- T/C (endpoint: mean survival time, dose: 100.0 mg/kg/injection, schedule: Q04DX003 (ip), vehicle: saline): 96 % of control
- T/C (endpoint: mean survival time, dose: 200.0 mg/kg/injection, schedule: Q04DX003 (ip), vehicle: saline): 91 % of control
- T/C (endpoint: mean survival time, dose: 400.0 mg/kg/injection, schedule: Q04DX003 (ip), vehicle: saline): 97 % of control

Structure (SMILES): CCOC(=O)c1cc2ccccc2n1-c1ccccc1
- T/C [1]: 95 % of control
- T/C [2]: 97 % of control
- T/C [3]: 95 % of control

Structure (SMILES): Cc1ccc(OC(=O)Nc2cc([N+](=O)[O-])ccc2[N+](=O)[O-])cc1
- T/C [11]: 100 % of control
- T/C [12]: 100 % of control
- T/C [13]: 92 % of control

Structure (SMILES): O=C(NCCc1nc(-c2nc(C(=O)O)cs2)cs1)c1ccccc1
- T/C [15]: 96 % of control
- T/C [16]: 96 % of control
- T/C (endpoint: mean survival time, dose: 400.0 mg/kg/injection, schedule: Q01DX009 (ip), vehicle: saline with Tween-80): 96 % of control

Structure (SMILES): c1ccc(P(c2cccc3ccccc23)c2cccc3ccccc23)cc1
- T/C [14]: 93 % of control
- T/C (endpoint: mean survival time, dose: 200.0 mg/kg/injection, schedule: Q01DX001 (ip), vehicle: saline): 93 % of control
- T/C (endpoint: mean survival time, dose: 400.0 mg/kg/injection, schedule: Q01DX001 (ip), vehicle: saline): 91 % of control

Structure (SMILES): COc1cccc2c1C(=O)c1c(O)c3c(c(O)c1C2=O)C[C@@](O)(C(C)=O)C[C@@H]3OC1CC(N(Cc2ccccc2)Cc2ccccc2)C(O)C(C)O1 (some centres undefined)
- T/C (endpoint: mean survival time, dose: 1.5 mg/kg/injection, schedule: Q01DX009 (ip), vehicle: saline with Tween-80): 105 % of control
- T/C (endpoint: mean survival time, dose: 3.0 mg/kg/injection, schedule: Q01DX009 (ip), vehicle: saline with Tween-80): 111 % of control
- T/C (endpoint: mean survival time, dose: 6.0 mg/kg/injection, schedule: Q01DX009 (ip), vehicle: saline with Tween-80): 117 % of control
- T/C (endpoint: mean survival time, dose: 12.0 mg/kg/injection, schedule: Q01DX009 (ip), vehicle: saline with Tween-80): 150 % of control
- T/C (endpoint: mean survival time, dose: 24.0 mg/kg/injection, schedule: Q01DX009 (ip), vehicle: saline with Tween-80): 115 % of control
- T/C (endpoint: mean survival time, dose: 48.0 mg/kg/injection, schedule: Q01DX009 (ip), vehicle: saline with Tween-80): 94 % of control

From PubChem BioAssay AID256 (DTP/NCI, 2004)
